Measurements reported in article doi:10.1101/2023.06.16.545261v2 (biorxiv, 2023).

Key:
[1] = target: T1, SIRT7 (recombinant human SIRT7, non-tagged) (Homo sapiens, UniProt Q9NRC8); experiment: fluorogenic deacylase assay; format: biochemical; conditions: read-out: % inhibition at 100 μM
T1 sequence (Q9NRC8 1-400): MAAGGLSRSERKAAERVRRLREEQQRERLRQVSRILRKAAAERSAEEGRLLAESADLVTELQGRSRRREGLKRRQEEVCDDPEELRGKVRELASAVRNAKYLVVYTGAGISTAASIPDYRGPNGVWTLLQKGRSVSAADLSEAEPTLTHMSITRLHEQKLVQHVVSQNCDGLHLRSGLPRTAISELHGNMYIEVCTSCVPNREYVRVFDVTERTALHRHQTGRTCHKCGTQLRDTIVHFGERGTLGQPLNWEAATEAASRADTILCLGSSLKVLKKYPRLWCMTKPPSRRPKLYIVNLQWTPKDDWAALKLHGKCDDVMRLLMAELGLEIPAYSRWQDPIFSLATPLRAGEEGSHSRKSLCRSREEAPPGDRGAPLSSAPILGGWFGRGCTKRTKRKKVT

[2] = target: T1, SIRT7 (recombinant human SIRT7, non-tagged); experiment: fluorogenic deacylase assay; format: biochemical

inhibition at 100 µM [1] [%]	IC50 [2] [µM]	SMILES
26	–	CCCCCCCCCCCCNC(=S)NCCCC[C@H](NC(=O)OCc1ccccc1)C(=O)N[C@@H](C)C(=O)N[C@@H](CCCNC(=N)N)C(N)=O [compound 3]
–	44	CCCCCCCCCCCCNC(=O)CCCCC[C@H](NC(=O)OCc1ccccc1)C(=O)N[C@H](C(=O)N[C@@H](CCC(=O)O)C(N)=O)C(C)C [compound 33, inverse amide 33]
–	34	CCCCCCCCCCCCNC(=S)CCCCC[C@H](NC(=O)OCc1ccccc1)C(=O)N[C@H](C(=O)N[C@@H](CCC(=O)O)C(N)=O)C(C)C [compound 34, inverse thioamide 34]
